According to US20090047269A1, “METABOLOMIC CANCER TARGETS” (The Regents of the University of Michigan, priority 2007, published 2009):

Tests used:
Type in all cases: cell-based
[1] = tested on: EGFR; assay: Immunoblot analysis of EGFR phosphorylation and total EGFR; details: for total EGFR levels upon treatment: prostate epithelial cells
[2] = tested on: immortalized benign RWPE prostate cells; assay: Modified Boyden chamber matrigel invasion assay, RWPE cells; details: for induction of invasion upon exogenous addition / increased invasion upon sarcosine addition compared to control: benign prostate epithelial cells; for increased invasion upon sarcosine addition compared to control: alanine as control
Method: To investigate the biological role of sarcosine elevation in prostate cancer, prostate cancer cell lines VCaP, DU145, 22RV1 and LNCaP and their benign epithelial counterparts, primary benign prostate epithelial cells PrEC and immortalized benign RWPE prostate cells were used.
To determine if sarcosine plays a role in this process, it was added directly to non-invasive benign prostate epithelial cells. Alanine (an isomer of sarcosine) was used as a control for these experiments. […] The present invention is not limited to a particular mechanism. Indeed, an understanding of the mechanism is not necessary to practice the present invention.
To understand the role of sarcosine in prostate cancer progression, levels of the metabolite was measured in a panel of prostate-derived cell lines. […] The knock down studies were carried out using specific siRNA and the extent of target inhibition was assessed using Q-PCR. The in vitro Boyden chamber assay was used to qualify the modulation in the invasiveness of the knock down cells.

[3] = tested on: p38MAPK; assay: Immunoblot analysis of p38MAPK phosphorylation; details: sarcosine-treated PrEC samples
Description: (§1) Also total EGFR levels were elevated upon treatment with alanine or sarcosine. […] This observation was further strengthened using both antibody-mediated inhibition of EGFRactivity and siRNA-mediated knock-down of receptor levels.

[4] = tested on: src; assay: Immunoblot analysis of src phosphorylation; details: prostate epithelial cells (PrEC), compared to alanine-treated controls
Description: as §1

[5] = RWPE cells, control non-target siRNA-transfected

Compound | total EGFR levels upon treatment [1] | invasion upon amino acid addition, mean±SEM ([2]; RWPE cells with GNMT knockdown) | invasion upon amino acid addition, mean±SEM [2, 5] | induction of invasion upon exogenous addition [2] | increased invasion upon sarcosine addition compared to control ([2]; 25 μM) [fold] | increased invasion upon sarcosine addition compared to control ([2]; 50 μM) [fold] | p38MAPK phosphorylation upon treatment [3] | EGFR phosphorylation upon treatment ([1]; prostate epithelial cells (PrEC), compared to alanine-treated controls) | src phosphorylation upon treatment [4]
C[C@H](N)C(=O)O [alanine, reference compound] | elevated |  |  |  |  |  |  |  | 
NCC(=O)O [glycine] |  | 0.20±0.03 | 0.46±0.04 | induced invasion in these cells, although to a lesser degree than sarcosine |  |  |  |  | 
CNCC(=O)O [sarcosine] | elevated | 0.64±0.07 | 0.65±0.05 | imparted an invasive phenotype | 1.64 | 2.57 | phosphorylation of p38MAPK | time-dependent increase | time-dependent increase
